Results reported in patent US20210361578A1, “MEK1/2 INHIBITOR-LOADED MICROPARTICLE FORMULATION” (University of Iowa Research Foundation, priority 2020, published 2021).
Entries after “also recorded” stand apart in the source; their conditions may differ.

Columns and labels:
[1] = system: plasma levels of norepinephrine; PVN p-ERK1/2; conditions: HF rats, cited from earlier work
[2] = In vitro drug release of PD98059-loaded microparticles (Examples 1/3, centrifugation and medium replacement); type: physicochemical; conditions: PD98059 powder; DPBS with 0.4% w/v Tween 80, 37° C.
Procedure: A weighed amount of the microparticles was suspended in 5 ml of the release medium (Dulbecco's phosphate buffered saline, DPBS, Life Science, Waltham, Mass.) that contains 0.4% w/v Tween 80 at an amount equivalent to 0.065 mg microparticles in 50 ml tube (n=3). The tubes were placed in an orbital shaker (New Brunswick Scientific, Edison, N.J.) operating at 300 rpm and 37° C. At pre-determined time points, the tube was centrifuged (1000×g for 5 min) and the whole volume of the release medium (5 ml) was removed and replaced completely with fresh medium in which the pellet was re-suspended. The concentration of PD98059 was measured in the samples using the HPLC method described below. The standard curve range was 0.125-10 μg/ml, and the r^2 value was 0.9998.
An Agilent Infinity 1100 HPLC (Santa Clara, Calif.) was used for to analyze PD98059 content and release of the microparticles. […] The flow rate used was 1 ml/min at room temperature, and the wavelength at which PD98059 was detected at 275 nm.
A weighed amount of the microparticles was suspended in 5 ml of the release medium (Dulbecco's phosphate buffered saline, DPBS, Life Science, Waltham, Mass.) that contains 0.4% w/v Tween 80 at an amount equivalent to 0.065 mg microparticles in 50 ml tube (n=3). […] The concentration of PD98059 was measured in the samples using the HPLC method described below. […]

[3] = Pharmacokinetics and organ levels of PD98059 following IV injection in healthy rats; type: in vivo
Procedure: 1: Pharmacokinetics of PD98059. Rats were anaesthetized using urethane and a canula was inserted in the femoral vein. A solution of PD98059 dissolved in 10% Tween 80 in sterile 1× DPBS at a concentration of 0.5 mg/ml (total volume 2 ml) was administered slowly by intravenous infusion. After 5, 15, 30, 60, 180, and 360 minutes, blood samples were withdrawn from rats. Major organs (liver, kidney, brain, and heart) were collected from rats after 1 and 3 hours (n=3/time point).
All blood samples were collected into 4 ml BD Vacutainer® blood collection tubes (K2-EDTA, Becton, Dickinson, and Company, Franklin Lakes, N.J.). Plasma samples were collected by centrifugation (3,300×g, 15 min), and frozen at −80° C. until analyzed. Plasma samples were thawed on ice, and a volume of 100 μl of plasma was transferred to a 15 ml tube, and spiked with 15 μl of the internal standard (IS) solution (10 μg/ml of 7-hydroxyfiavone in methanol). Collected organs were rinsed in PBS, then frozen at −80° C. For organs, a portion of each organ (200-400 mg) was accurately weighed and homogenized (Fisher Brand Bead Mill 4 Homogenizer, Hampton, N.H.) in 250 μl of 1× DPBS using 20-25 2.5 mm ceramic beads per sample, and spiked with 15 μl of the internal standard (IS) solution. One ml of cold acetonitrile was added to 100 μl of plasma samples or 400 μl of the tissue homogenate and vortexed for 1 min. The samples were kept on ice for 15 min to precipitate the proteins, then the tubes were centrifuged (4° C., 3,300×g, 10 min) and the supernatant was collected, and evaporated under nitrogen stream.
In the case of protocols 1 and 2, the residue in each tube was then dissolved in the mobile phase (described in the HPLC section below), centrifuged (12,000×g, 5 min), and the supernatant was injected in the HPLC and analyzed by the method described below. A standard curve was prepared using plasma and tissues collected from naive rats. These plasma or tissue homogenate samples were spiked with 15 μl of the IS solution as mentioned above, in addition to 15 μl of standard solutions of PD98059 in methanol at different concentrations. Pharmacokinetic parameters were calculated using PK Solver.
An Agilent HPLC workstation was used for sample analysis (Agilent Infinity 1100, Santa Clara, Calif.) that consisted of an Agilent quaternary pump, automatic injection port, and Agilent diode array detector (Agilent Corporation, Santa Clara, Calif.). A RP-C18 column was used for analysis (Waters Symmetry, 5 μm pore size, 4.6 mm×150 mm, Milford, Mass.). The mobile phase consisted of methanol: water 70:30 with 0.1% v/v trifluoroacetic acid, and the flow rate was 1 ml/min at room temperature. The detection wavelength was set to 275 nm.

[4] = system: MEK; conditions: Dudley et al.; cited from earlier work
[5] = system: PVN neuronal excitation and sympathetic nerve activity; conditions: cited from earlier work

COc1cccc(-c2cc(=O)c3ccccc3o2)c1N [PD98059]
plasma norepinephrine levels ([1]; ICV infusion for 4 weeks): significant reduction; also recorded: reduced; also recorded: normalized
PVN p-ERK1/2 ([1]; long term ICV infusion): successfully decreased
time for 80% of the unencapsulated drug to dissolve in the release medium [2]: 24 h
AUC0-t ([3]; IV injection of 1 mg of PD98059 in solution, non-compartmental analysis): 2.3787 µg·h/mL
brain PD98059 level at 1 hour ([3]; healthy rats, IV 1 mg): approximately 410 ng/g
brain PD98059 level at 3 hours ([3]; healthy rats, IV 1 mg): ~76 ng/g
drug levels in major organs (liver, kidney, brain, heart) ([3]; healthy rats, IV 1 mg, 1 and 3 hours): drug levels in the liver and kidney were comparatively higher than those in the brain and heart
crossing of the blood brain barrier ([3]; rats): a significant portion of the drug crossed the blood brain barrier; also recorded: found to cross the blood brain barrier
elimination half-life ([3]; rats): above 1 hour
elimination half-life in plasma ([3]; rats, IV injection of PD98059 solution, 1 mg): 1.22 h
pharmacokinetic model that fits the data ([3]; rats, IV, PK Solver): 2-compartment model
in vitro activity of MEK once PD98059 was removed from the medium [4]: fully and instantaneously restored
heart rate ([5]; HF rats, 1-h ICV infusion, compared to SHAM or untreated animals): significantly decreased
PVN neuronal excitation and (renal) sympathetic nerve activity ([5]; heart failure rats, 1-hour ICV infusion): decreased; also recorded: inhibited
